Experiments:
oral peroxidase (OPO) [1] = format: biochemical, human; details: for OPO activity in the presence of aldehydes: 2 mM acetylaldehyde, 80 μM acrolein, 20 μM crotonaldehyde, TS-treated saliva
lymphocytes [2] = experiment: Western immunoblotting analysis of lymphocyte protein carbonylation; format: cell-based, human
Description: Western Immunoblotting Analysis of Protein Carbonylation: Salivary proteins were separated by SDS-PAGE using a 10% gel and electro-blotted onto nitrocellulose membranes, as previously described (14). The Oxyblot Kit (Intergen Co, Purchase N.Y.) was used with anti-dinitrophenyhydrazine (DNPH) antibodies to label carbonylated proteins. Protein carbonylation levels were then visualized by reacting labelled blots with a secondary HRP-conjugated anti-rabbit antibody followed by ECL detection of secondarily labelled proteins, as previously described (14).
(§1) Lymphocyte Isolation: Blood from 10 consenting, healthy, non-smoking subjects, 5 males and 5 females ranging from 18-55 years of age, was drawn into EDTA-containing vacutainers. Lymphocytes were isolated by Ficoll-Hypaque (Sigma) gradient centrifugation according to the manufacturer's instructions and lymphocytes were suspended at 10^7 cells/ml PBS (Beit-Ha'emek Industries, Israel), and used immediately in experiments.
Treatment of Lymphocytes With TS in the Presence of Saliva: Exposure of lymphocytes to TS was carried out by attaching a Time cigarette (capable of removing particles>[…] in diameter) in which the filter tip was removed to a Cambridge filter which was combined with a vacuum system to aspirate gas-phase TS inside sealed 250 ml flasks containing lymphocytes suspended in 12-15 ml PBS, as previously described (14, 15). A reproducible vacuum was created in the flask and upon application of vacuum for 5 s, 80-100 ml of TS from the lit cigarette was drawn into the flask. […] Saliva treatment of lymphocytes was performed by suspending these in PBS supplemented with 30% (v/v) saliva. Following treatment with the TS of 0.5 cigarettes, flasks were incubated at 37° C. for 20 min in a metabolic shaker and subjected to a further 4 treatments with TS, as described above.
Western Immunoblotting Analysis of Lymphocyte Protein Carbonylation: Lymphocytes were washed twice in PBS following treatment by centrifugation at 2,000 rpm for 2 minutes to remove saliva and other components of the incubation medium. Lymphocytes were then centrifuged at 14,000 rpm for 1 minute and lysed by sonication for 10 seconds in lysis buffer containing 20 mM Tris pH 7.4, 1 mM EGTA, 1 mM PMSF, 50 μM NaVO4 and 50 mM NaF. Lysates were centrifuged at 14,000 rpm for 1 minute and supernatants were harvested for analysis. Carbonylation analysis was performed as described above.

lymphocytes [3] = experiment: Lymphocyte survival by Trypan Blue exclusion assay; format: cell-based, human
Procedure: Saliva Collection: Saliva was collected from healthy subjects, 3 males and 3 females ranging from 21-47 years of age, under non-stimulatory conditions in a quiet room during the morning between 8 am and noon. Saliva collection was performed at least 1 h after eating by spitting into a recipient for 10 minutes, as previously described (43). Following collection, saliva was immediately centrifuged at 800×g for 10 min at 4° C. to remove cells and cell debris and the resulting supernatant was used for biochemical analyses.
as §1
A reproducible vacuum was created in the flask and upon application of vacuum for 5 s, 80-100 ml of TS from the lit cigarette was drawn into the flask. […] Saliva treatment of lymphocytes was performed by suspending these in PBS supplemented with 30% (v/v) saliva. Following treatment with the TS of 0.5 cigarettes, flasks were incubated at 37° C. for 20 min in a metabolic shaker and subjected to a further 4 treatments with TS, as described above.
Measurement of Lymphocyte Survival: Lymphocyte viability was assessed by Trypan Blue exclusion assay.

oral peroxidase (OPO) [4] = experiment: OPO activity in saliva exposed in vitro to tobacco smoke (NBS-SCN assay); format: biochemical, human
MPO = biological target: T1, MPO (Homo sapiens, UniProt P05164); experiment: Control MPO activity (commercial MPO) in the presence of dapsone; format: biochemical; details: 150 μM dapsone
T1 construct: purchased
T1 sequence (P05164 49-745): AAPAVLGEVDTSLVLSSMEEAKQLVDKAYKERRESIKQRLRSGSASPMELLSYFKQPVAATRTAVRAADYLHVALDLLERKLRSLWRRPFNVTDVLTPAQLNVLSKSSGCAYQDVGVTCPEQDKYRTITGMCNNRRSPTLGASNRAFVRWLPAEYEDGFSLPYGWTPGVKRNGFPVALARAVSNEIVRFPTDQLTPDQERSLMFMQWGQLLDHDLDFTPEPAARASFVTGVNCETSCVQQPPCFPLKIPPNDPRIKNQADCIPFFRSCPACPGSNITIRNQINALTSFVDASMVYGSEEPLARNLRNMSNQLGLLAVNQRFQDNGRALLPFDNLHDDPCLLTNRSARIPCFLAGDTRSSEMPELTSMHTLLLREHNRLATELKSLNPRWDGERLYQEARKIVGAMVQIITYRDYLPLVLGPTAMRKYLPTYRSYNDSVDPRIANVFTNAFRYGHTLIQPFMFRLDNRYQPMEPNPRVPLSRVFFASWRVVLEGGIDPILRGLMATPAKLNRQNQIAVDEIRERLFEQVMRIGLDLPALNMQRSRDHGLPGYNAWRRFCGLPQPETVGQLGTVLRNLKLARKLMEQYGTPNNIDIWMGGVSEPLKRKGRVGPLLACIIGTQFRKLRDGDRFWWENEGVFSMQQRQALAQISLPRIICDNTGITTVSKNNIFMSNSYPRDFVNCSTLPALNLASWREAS
Procedure: FIG. 7 is a data plot depicting the effect of increasing concentrations of dapsone (4-aminophenylsulfone) on OPO activity in TS-treated saliva. Abbreviations: NO.1, NO.2, NO.3, NO4 and NO.5 correspond to saliva from 5 different subjects and plasma corresponds to commercial MPO.
Analysis of OPO Activity: OPO activity was measured according to the 2-nitrobenzoic-thiocyanate (NBS-SCN) assay, as previously described (20). Briefly, DTNB is reduced to NBS by addition of β-mercaptoethanol and decreases in NBS concentration by reaction with OSCN^−, a product of OPO, are monitored spectrophotometrically by measuring absorbance at 412 nm at pH 5.6 (18). One unit of enzyme activity was defined as the activity required to cleave 1 μmol of NBS/min at 22° C., using a molar extinction coefficient of 12,800 (20).
Thus, in order to determine which of the MPO or SPO activity components of OPO activity are lost as a result of exposure to TS, OPO activity in TS-treated saliva was measured in the presence of increasing concentrations of 50-150 μM dapsone.

[5] = lymphocytes in PBS, 20 minutes, 80 μM acrolein, 20 μM crotonaldehyde or 2 mM acetaldehyde

SMILES: [Cl][Fe]([Cl])[Cl] [FeCl3]
- inhibition of OPO activity (oral peroxidase (OPO) [1]; saliva exposed 2 h to 1 mM ascorbate or 100 μM FeCl3): did not inhibit OPO activity

SMILES: N[C@@H](CCC(=O)N[C@@H](CS)C(=O)NCC(=O)O)C(=O)O [GSH, L-γ-glutamyl-1-cysteine-glycine]
- protection assessed by lymphocyte protein carbonylation levels (lymphocytes [2]; TS and saliva, 20 minutes, 1 mM agent (FIG. 20)): unique protection
- protection from aldehyde-induced protein carbonylation (lymphocytes [2]; aldehydes + 1 mM GSH, 20 min (FIG. 21)): protection provided by GSH was similar
- effect on death rate of lymphocytes exposed to TS and saliva (lymphocytes [3]): partially prevented
- loss of OPO activity in TS-treated saliva in the presence or absence of the agent (oral peroxidase (OPO) [4]; 1 mM agent): similar

SMILES: N#C[S-].[K+] [KSCN, potassium thiocyanate]
- protection against TS-induced loss of OPO activity (oral peroxidase (OPO) [4]): significant protection against loss of OPO activity

SMILES: CC(=O)N[C@@H](CS)C(=O)O [NAC, N-acetylcysteine]
- effect on death rate of lymphocytes exposed to TS and saliva (lymphocytes [3]): did not alter the death rate

SMILES: C/C1=C2/[N-][C@H]([C@H](CC(N)=O)[C@@]2(C)CCC(=O)NC[C@@H](C)OP(=O)([O-])O[C@H]2[C@@H](O)[C@@H](n3cnc4cc(C)c(C)cc43)O[C@@H]2CO)[C@]2(C)N=C(/C(C)=C3N=C(/C=C4N=C1[C@@H](CCC(N)=O)C\4(C)C)[C@@H](CCC(N)=O)[C@]\3(C)CC(N)=O)[C@@H](CCC(N)=O)[C@]2(C)CC(N)=O.[Co+3].[OH-] [OH—CO, hydroxocobalamin]
- prevention of loss of OPO activity in saliva (oral peroxidase (OPO) [4]; increasing amounts of OH—CO (0.5, 1, 2 mM, FIG. 14), 40 min after treatment with TS): prevent, to a significant extent
- prevention of loss of OPO activity by preincubation (oral peroxidase (OPO) [4]; preincubation of saliva with OH—CO, TS or KCN): could prevent both TS- and KCN-associated loss of OPO activity
- prevention of KCN-associated loss of OPO activity (oral peroxidase (OPO) [1]; 1 mM OH—CO, saliva treated 2 min with 1 mM KCN): completely prevent

SMILES: CC=O [acetaldehyde]
- death rates (lymphocytes [3]; both, human): 92.7%
- OPO activity in the presence of aldehydes (oral peroxidase (OPO) [1]): unaffected

SMILES: C=CC=O [acrolein]
- lymphocyte protein carbonylation levels (lymphocytes [2]; acrolein with saliva versus acrolein alone (FIG. 22: 80 μM, 20 min)): did not enhance carbonylation levels
- survival rates (lymphocytes [3]; acrolein, first value of 'respectively' (taken as without saliva), time not given): 57.9%
- survival rates (lymphocytes [3]; acrolein, second value of 'respectively' (taken as with saliva), time not given): 66.4%
- survival rates (lymphocytes [3]; [5]): 63.3%
- death rates (lymphocytes [3]; lymphocytes in PBS, 80 minutes, 80 μM acrolein, 20 μM crotonaldehyde or 2 mM acetaldehyde): 57.3%
- OPO activity in the presence of aldehydes (oral peroxidase (OPO) [1]): unaffected

SMILES: O=C1O[C@H]([C@@H](O)CO)C(O)=C1O [ascorbate]
- lymphocyte survival rate (lymphocytes [3]; ascorbate (1 mM) added to PBS containing FeCl3 (90 μM), no saliva, 20 min (FIG. 23 column 8)): 77%
- lymphocyte survival rate (lymphocytes [3]; ascorbate (1 mM) added to saliva-containing medium without exposure to TS, 20 min (FIG. 23 column 6)): 78%

SMILES: C/C=C/C=O [crotonaldehyde]
- death rates (lymphocytes [3]; both, human): 75.3%
- survival rates (lymphocytes [3]; [5]): 80.3%
- OPO activity in the presence of aldehydes (oral peroxidase (OPO) [1]): unaffected

SMILES: Nc1ccc(S(=O)(=O)c2ccc(N)cc2)cc1 [dapsone, 4-aminophenylsulfone]
- control MPO activity (MPO): unaffected
- loss of OPO activity in the presence or absence of the agent (oral peroxidase (OPO) [4]; TS-treated saliva containing ~40% MPO, 150 μM dapsone): similar
- Loss of OPO activity (oral peroxidase (OPO) [4]; TS-treated saliva in the presence of 150 μM dapsone): 60-85%

SMILES: CC(=O)N(O)CCCCCNC(=O)CCC(=O)N(O)CCCCCNC(=O)CCC(=O)N(O)CCCCCN [deferoxamine]
- lymphocyte survival rate (lymphocytes [3]; TS and saliva treatment, 80 minutes, 1 mM agent): 23.7%

SMILES: O=c1[nH]c(=O)c2[nH]c(=O)[nH]c2[nH]1 [uric acid]
- lymphocyte protein carbonylation levels (lymphocytes [2]; uric acid added to suspension medium instead of saliva (10 or 100 μM, FIG. 18), no TS): reduced carbonylation levels

Reference: patent US6789546B2, “Filters for preventing or reducing tobacco smoke-associated injury in the aerodigestive tract of a subject” (Technion Research & Development Foundation Ltd., priority 2001, dated 2004)
